Reference: patent publication US20250163057A1, “DCN-1 MODULATING COMPOUNDS AND METHODS OF USE THEREOF” (Cellarity, Inc., priority 2023, published 2025)
Where two headings read alike, the source gives them in different places.

How the values were obtained:
[1] = molecular target: DCN1 (DCUND1) protein PONY domain (Homo sapiens (Human), UniProt Q96GG9); experiment: TR-FRET assay, DCN1 binding with FAM-labeled probe
In short: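 Biotinylated DCN1 PONY domain, labeled with streptavidin-Tb, was competed against a FAM-labeled non-covalent DCN1 inhibitor probe in buffer with TritonX and 200 mM NaCl. Conditions were 5 nM DCN1 with 20 nM FAM-probe, or 0.31 nM DCN1 with 100 nM FAM-plus 800 nM unlabeled probe. The TR-FRET ratio was read at 1, 5 and 24 h (0.1% DMSO).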

[2] = tested on: Cullin-3 (CUL3) neddylation; experiment: AlphaLISA assay for Cullin-3 (CUL3) neddylation in TF 1 cells; assay type: cell-based; conditions: 3 hours treatment
In short: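 Neddylated CUL3 was quantified by AlphaLISA in lysates of TF 1 cells exposed for 3 h to test compound in IMDM without supplements. Percent inhibition set between vehicle and 1 μM DI-1548 positive control; IC50 derived by Hill-equation fitting of dose-response curves.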

[3] = 24 hr after treatment with compound, read-out: TR FRET IC50 24 hr
[4] = TR FRET IC50 1 hr (nM), 1 hr after treatment with compound
[5] = read-out: TR FRET IC50 1 hr, 1 hr after treatment with compound

Sequence of DCN1 (DCUND1) protein PONY domain (Q96GG9 60-248): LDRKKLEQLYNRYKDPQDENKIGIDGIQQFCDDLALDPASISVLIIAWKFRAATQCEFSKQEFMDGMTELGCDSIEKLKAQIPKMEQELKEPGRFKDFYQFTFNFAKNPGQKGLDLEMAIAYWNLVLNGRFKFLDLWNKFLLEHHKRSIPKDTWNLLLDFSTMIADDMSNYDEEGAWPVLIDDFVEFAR

Structure (SMILES)	IC50 [1, 3]	IC50 [1, 4]	IC50 ([2]; Homo sapiens, TF-1, 3 h)	IC50 [2]	IC50 [1, 5]	IC50 ([2]; Homo sapiens)
CCN1C(=O)[C@@H](NC(=O)c2cccc(C(F)(F)F)c2)[C@@H](c2ccc(F)cc2)c2c([C@H](CCCO)NC#N)nn(-c3ccccc3)c21 [Compound I-489]	≤ 200 nM	200 to 1000 nM	≤ 0.1 µM			
CCN1C(=O)[C@H](NC(=O)c2cccc(C(F)(F)F)c2)[C@H](c2ccc(F)cc2)c2c(C(=O)N3[C@H](C#N)C[C@H]4C[C@H]43)nn([C@@H]3CCOC3)c21 (single isomer, unassigned) [Compound I-562]	1000 to 3000 nM	1000 to 3000 nM		> 1 µM		
CCN1C(=O)[C@@H](NC(=O)c2cccc3[nH]cnc23)[C@@H](C2CC2)c2c(C(=O)N3[C@H](C#N)C[C@H]4C[C@H]43)nn(C3CCOCC3)c21 [Compound I-446]	1000 to 3000 nM	1000 to 3000 nM	> 1 µM			
CCN1C(=O)[C@H](NC(=O)c2cccc(C(F)(F)F)c2)[C@H](c2ccc(F)cc2)c2c(C(=O)N(CC#N)C3COC3)nn(-c3ccccc3)c21 (racemic) [Compound I-603]	≤ 200 nM	1000 to 3000 nM	0.1 to 1 µM			
CCN1C(=O)[C@@H](NC(=O)c2cccc(C(F)(F)F)c2)[C@@H](C2CC2)c2c(C(=O)N3CCN(C)C[C@@H]3C#N)nn(C3CCOCC3)c21 (single isomer, unassigned) [Compound I-431]	200 to 1000 nM	200 to 1000 nM	0.1 to 1 µM			
CCN1C(=O)[C@@H](NC(=O)c2cccc(C(F)(F)F)c2)[C@@H](C2CC2)c2c(C(=O)N(CC#N)C3CC3)nn(-c3ccccc3)c21 [Compound I-619]	≤ 200 nM	1000 to 3000 nM	0.1 to 1 µM			
C=CC(=O)N[C@H](C)c1nn(-c2ccccc2)c2c1[C@H](c1ccc(F)cc1)[C@@H](NC(=O)c1nccc(C(F)(F)F)n1)C(=O)N2CC [Compound I-605]	1000 to 3000 nM	1000 to 3000 nM	> 1 µM			
CCN1C(=O)[C@@H](NC(=O)c2csc(C)c2)[C@@H](C2CC2)c2c(C(=O)N3[C@H](C#N)C[C@H]4C[C@H]43)nn(C3CCOCC3)c21 [Compound I-481]	≤ 200 nM				≤ 200 nM	≤ 0.1 µM
CCN1C(=O)[C@@H](NC(=O)c2cccc(C(F)(F)F)c2)[C@@H](C2CC2)c2c(C(=O)N3[C@H](C#N)C[C@@H]4C[C@@H]43)nn(C3CCOCC3)c21 [Compound I-441]	200 to 1000 nM	1000 to 3000 nM	> 1 µM			
CCN1C(=O)[C@H](NC(=O)c2cccc(C(F)(F)F)c2)[C@H](C2CC2)c2c(C(=O)N(C)C(C)C#N)nn(C3CCOCC3)c21 (mixture of isomers) [Compound I-415]	1000 to 3000 nM	1000 to 3000 nM	> 1 µM			
CCN1C(=O)[C@H](NC(=O)c2cccc(C(F)(F)F)c2)[C@H](c2ccc(F)cc2)c2c(C(=O)N3[C@H](C#N)C[C@H]4C[C@H]43)nn([C@@H]3CCOC3)c21 (single isomer, unassigned) [Compound I-704]	≤ 200 nM			0.1 to 1 µM	1000 to 3000 nM	
CCN1C(=O)[C@@H](NC(=O)c2cccc(C(F)(F)F)c2)[C@@H](c2ccc(F)cc2)c2c(NC(=O)C3=CCCN(C)C3)nn(-c3ccccc3)c21 (racemic) [Compound I-488]	≤ 200 nM	200 to 1000 nM	≤ 0.1 µM			
C=C(CN1CC2CC(C1)O2)C(=O)NCc1nn(-c2ccccc2)c2c1[C@H](c1ccc(F)cc1)[C@H](NC(=O)c1cccc(C(F)(F)F)c1)C(=O)N2CC [Compound I-56]	≤ 200 nM		≤ 0.1 µM		≤ 200 nM	
CCN1C(=O)[C@@H](NC(=O)CCc2ccccc2)[C@@H](C2CC2)c2c(C(=O)N3[C@H](C#N)C[C@H]4C[C@H]43)nn(C3CCOCC3)c21 [Compound I-476]	1000 to 3000 nM	1000 to 3000 nM	> 1 µM			
CCN1C(=O)[C@@H](NC(=O)c2cccc(C(F)(F)F)c2)[C@@H](c2ccc(F)cc2)c2c(CNC/C=C/C(=O)N(C)C)nn(-c3ccccc3)c21 [Compound I-490]	≤ 200 nM		0.1 to 1 µM		≤ 200 nM	
CCCn1nc(C(=O)N(CC#N)C2CC2)c2c1N(CC)C(=O)[C@H](NC(=O)c1cccc(C(F)(F)F)c1)[C@@H]2c1ccc(F)cc1 [Compound I-572]	1000 to 3000 nM	1000 to 3000 nM	> 1 µM			
